In PMC8899516, “Structure-Activity Relationship Studies of 4-((4-(2-fluorophenyl)piperazin-1-yl)methyl)-6-imino-N-(naphthalen-2-yl)-1,3,5-triazin-2-amine (FPMINT) Analogues as Inhibitors of Human Equilibrative Nucleoside Transporters” (Frontiers in Pharmacology, 2022):

Columns and labels:
[1] = target: T1, ENT2 (Homo sapiens, UniProt Q14542); test: [3H]uridine uptake in PK15NTD/ENT2 cells; assay type: cell-based; details: for effect on ENT2: [3H]uridine uptake, 10 nM–100 μM analogue; for IC50: [3H]uridine 1 μM, 1 min, PK15NTD/ENT2 cells, read-out: IC50 against ENT2; for selectivity to ENT2 over ENT1: more selective to ENT2 than to ENT1, from IC50 values
T1 construct: expressed in transfected cells
T1 sequence (Q14542 1-456): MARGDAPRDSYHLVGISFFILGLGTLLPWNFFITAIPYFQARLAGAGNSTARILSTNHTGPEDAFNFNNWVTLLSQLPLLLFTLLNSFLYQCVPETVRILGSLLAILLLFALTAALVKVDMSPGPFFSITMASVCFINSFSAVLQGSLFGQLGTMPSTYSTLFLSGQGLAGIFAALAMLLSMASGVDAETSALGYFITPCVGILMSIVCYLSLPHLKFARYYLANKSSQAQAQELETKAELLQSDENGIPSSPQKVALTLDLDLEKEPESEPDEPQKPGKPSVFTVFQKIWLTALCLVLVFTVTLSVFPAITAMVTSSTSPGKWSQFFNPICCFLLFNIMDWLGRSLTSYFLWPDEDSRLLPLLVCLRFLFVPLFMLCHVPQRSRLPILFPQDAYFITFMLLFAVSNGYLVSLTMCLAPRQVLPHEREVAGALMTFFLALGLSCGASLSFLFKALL
Experimental: (§1) Nucleoside transporter-deficient porcine kidney fibroblast cells (PK15NTD) stably transfected with cloned human ENT1 or ENT2 ([Ward et al., 2000]) were used as the in vitro models. The cells were cultured in Dulbecco’s Modified Eagle’s Medium (DMEM) supplemented with 10% (v/v) foetal bovine serum, 0.5 mg/ml geneticin, 100 units/ml penicillin, 100 μg/ml streptomycin and 0.25 μg/ml of amphotericin B at 37°C in 5% CO2/95% air.
The cells were incubated with different concentrations of FPMINT analogues (from 10 nM to 100 μM) containing [^3H]uridine (2 μCi/ml, 1 μM) for 1 min. Passive uridine uptake was determined by incubating the cells in HEPES-buffered Ringer’s solution containing [^3H]uridine in the presence of 0.5 mM NBMPR. The cells were rapidly washed five times with ice-cold phosphate-buffered saline (PBS). After air-drying, the cells were solubilised by overnight incubation in 500 μl of 5% Triton-X100. Next, 300 μl of the cell lysates were mixed with 2 ml of scintillation liquid. The radioactivity of each sample was quantified by a scintillation counter. The protein content in each well was determined spectrophotometrically using a commercial bicinchoninic acid assay (Pierce Biochemicals, Rockford, IL). Uptake values were expressed as picomoles of [^3H]uridine per milligram of cellular protein per minute.
(§2) All data were analysed by GraphPad Prism software (San Diego, CA, United States). Data are expressed as mean ± standard error (SE) of three experiments performed in triplicate. The IC50 values were determined from the dose-response curves fitted with a logistic function. For the kinetic study of [^3H]uridine uptake, apparent K m and V max values were determined from the Michaelis-Menten equation, and K i was determined from the X-intercept of linear regression. Analysis of variance and Student’s t-test were performed for multiple and paired variables, respectively. p values of <0.05 were considered to be statistically significant.

[2] = target: T2, ENT1 (Homo sapiens, UniProt Q99808); test: [3H]uridine uptake in PK15NTD/ENT1 cells; assay type: cell-based; details: for IC50: [3H]uridine 1 μM, 1 min, PK15NTD/ENT1 cells, read-out: IC50 against ENT1
T2 construct: expressed in transfected cells
T2 sequence (Q99808 1-456): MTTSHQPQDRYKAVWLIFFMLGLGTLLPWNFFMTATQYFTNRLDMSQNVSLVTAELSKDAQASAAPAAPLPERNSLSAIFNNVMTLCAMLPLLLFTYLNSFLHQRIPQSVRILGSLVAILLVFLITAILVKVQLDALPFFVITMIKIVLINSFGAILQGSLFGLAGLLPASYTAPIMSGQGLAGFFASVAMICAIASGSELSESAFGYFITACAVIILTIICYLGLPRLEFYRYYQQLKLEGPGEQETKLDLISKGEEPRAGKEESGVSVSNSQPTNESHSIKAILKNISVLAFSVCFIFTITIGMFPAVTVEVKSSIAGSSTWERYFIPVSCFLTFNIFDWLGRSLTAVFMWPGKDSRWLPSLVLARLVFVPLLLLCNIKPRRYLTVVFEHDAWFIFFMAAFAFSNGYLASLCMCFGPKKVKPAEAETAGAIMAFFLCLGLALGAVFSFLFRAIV
Experimental: as §1
Confluent monolayers of PK15NTD/ENT1 and PK15NTD/ENT2 cells in 24-well plates were washed thrice with HEPES-buffered Ringer’s solution containing (mM): 135 NaCl, 10 glucose, 5 KCl, 5 HEPES, 3.33 NaH2PO4, 1.0 CaCl2, 1.0 MgCl2, 0.83 Na2HPO4; pH 7.4. The cells were incubated with different concentrations of FPMINT analogues (from 10 nM to 100 μM) containing [^3H]uridine (2 μCi/ml, 1 μM) for 1 min. Passive uridine uptake was determined by incubating the cells in HEPES-buffered Ringer’s solution containing [^3H]uridine in the presence of 0.5 mM NBMPR. The cells were rapidly washed five times with ice-cold phosphate-buffered saline (PBS). After air-drying, the cells were solubilised by overnight incubation in 500 μl of 5% Triton-X100. Next, 300 μl of the cell lysates were mixed with 2 ml of scintillation liquid. The radioactivity of each sample was quantified by a scintillation counter. The protein content in each well was determined spectrophotometrically using a commercial bicinchoninic acid assay (Pierce Biochemicals, Rockford, IL). Uptake values were expressed as picomoles of [^3H]uridine per milligram of cellular protein per minute.
as §2

[3] = system: ENT4; set-up: method as in Baldwin et al., 2005; Barnes et al., 2006; details: ref Baldwin et al., 2005; Barnes et al., 2006; cited from earlier work
[4] = system: ENT3; set-up: method as in Baldwin et al., 2005; Barnes et al., 2006; details: ref Baldwin et al., 2005; Barnes et al., 2006; cited from earlier work
[5] = system: ENT1 and ENT2; details: ref Ward et al., 2000, cited from earlier work; for fold more potent in inhibiting ENT1 than in inhibiting ENT2: Playa et al., 2014
[6] = system: ENT1 and ENT2; set-up: method as in Ward et al., 2000; details: substrate affinity; ref Ward et al., 2000; cited from earlier work

Nc1nc(CN2CCN(c3ccccc3F)CC2)nc(Nc2ccccc2)n1 [Compound 1a]
effect on ENT2 [1]: negligible effects
effect on ENT1 ([2]; [3H]uridine uptake, 10 nM–100 μM analogue): negligible effects

Nc1nc(CN2CCN(c3ccccc3F)CC2)nc(Nc2cccc(Cl)c2)n1 [Compound 1b]
effect on ENT2 [1]: no effect
IC50 [2]: 1.82 µM

CCc1ccc(Nc2nc(N)nc(CN3CCN(c4ccccc4F)CC3)n2)cc1 [Compound 1c]
IC50 [1]: 36.8 µM
selectivity to ENT2 over ENT1 [1]: 4.647 fold
IC50 [2]: 171 µM

COc1ccc(Nc2nc(N)nc(CN3CCN(c4ccccc4F)CC3)n2)cc1 [Compound 1d]
IC50 [1]: 77.1 µM
IC50 [2]: 0.59 µM

Nc1nc(CN2CCN(c3ccccc3)CC2)nc(Nc2cccc3ccccc23)n1 [Compound 2a]
effect on ENT2 [1]: did not inhibit
IC50 [2]: 105 µM

Nc1nc(CN2CCN(c3cccc(Cl)c3)CC2)nc(Nc2cccc3ccccc23)n1 [Compound 2b]
IC50 [1]: 2.95 µM
selectivity to ENT2 over ENT1 [1]: 4.29 fold
IC50 [2]: 12.7 µM

Nc1nc(CN2CCN(c3ccc(F)cc3)CC2)nc(Nc2cccc(Cl)c2)n1 [Compound 3b]
effect on ENT2 [1]: did not inhibit
IC50 [2]: 1.65 µM

O=[N+]([O-])c1ccc(CSc2ncnc3c2ncn3[C@@H]2O[C@H](CO)[C@@H](O)[C@H]2O)cc1 [NBMPR, S-(4-nitrobenzyl)-6-thioinosine]
sensitivity of ENT4 to inhibitor [3]: inert
sensitivity of ENT3 to inhibitor [4]: inert
fold more potent in inhibiting ENT1 than in inhibiting ENT2 [5]: 7,000 fold
IC50 of ENT2 fold higher than that of ENT1 [5]: 7,000 fold

Nc1ncnc2c1ncn2[C@@H]1O[C@H](CO)[C@@H](O)[C@H]1O [adenosine]
affinity of ENT1 fold higher than that of ENT2 [6]: 2.8 fold

Nc1ccn([C@@H]2O[C@H](CO)[C@@H](O)[C@H]2O)c(=O)n1 [cytidine]
affinity of ENT1 fold higher than that of ENT2 [6]: 7.7 fold

COc1cc(C(=O)OCCCN2CCCN(CCCOC(=O)c3cc(OC)c(OC)c(OC)c3)CC2)cc(OC)c1OC [dilazep]
fold more potent in inhibiting ENT1 than in inhibiting ENT2 [5]: 502 fold

OCCN(CCO)c1nc(N2CCCCC2)c2nc(N(CCO)CCO)nc(N3CCCCC3)c2n1 [dipyridamole]
sensitivity of ENT4 to inhibitor [3]: inert
sensitivity of ENT3 to inhibitor [4]: inert
fold more potent in inhibiting ENT1 than in inhibiting ENT2 [5]: 71 fold
IC50 of ENT2 fold higher than that of ENT1 [5]: 71 fold

Nc1nc2c(ncn2[C@@H]2O[C@H](CO)[C@@H](O)[C@H]2O)c(=O)[nH]1 [guanosine]
affinity of ENT1 fold higher than that of ENT2 [6]: 19.3 fold

Cc1cn([C@H]2C[C@H](O)[C@@H](CO)O2)c(=O)[nH]c1=O [thymidine]
affinity of ENT1 fold higher than that of ENT2 [6]: 2.6 fold
